Results: patent US12419619B2, “Aspiration device” (YALE UNIVERSITY, priority 2016, dated 2025)

Legend:
stem cells = details: novel dual-lumen device with lidocaine infusion, without pressure modulation; live porcine model, N=4, control single-hole device
Description: The colony forming unit (CFU) assay is an accepted measure of relative stem cell concentrations in BMA. […] A preliminary (N=4) trial of BMA in a live porcine model was performed comparing a single-hole cancer aspiration device to the novel dual-lumen BMA method.

[1] = intraosseous infusion; cited from earlier work

CCN(CC)CC(=O)Nc1c(C)cccc1C [lidocaine]
CFU/mL of aspirate versus control (stem cells): more than doubled | whole-bone anesthesia [1]: effective in whole-bone anesthesia
